Experimental data: the NIST ThermoML archive (doi:10.1016/j.tca.2009.10.001)

Assay: xn = mol fraction of the nth substance listed
Settings: 101 kPa, Liquid; for viscosity: Capillary tube (Ostwald / Ubbelohde) method; for speed of sound: Linear variable-path acoustic interferometer; for mass density: Pycnometric method

CC#N [acetonitrile] + Cc1ccccc1
Settings | mass density, 298.15 K [kg/m3] | mass density, 303.15 K [kg/m3] | mass density, 308.15 K [kg/m3] | speed of sound, 298.15 K [m/s] | speed of sound, 303.15 K [m/s] | speed of sound, 308.15 K [m/s] | viscosity, 298.15 K [mPa·s] | viscosity, 303.15 K [mPa·s] | viscosity, 308.15 K [mPa·s]
x2 = 0 | 775.3 | 769.9 | 764.7 | 1271.3 | 1251.9 | 1231.7 | 0.3696 | 0.3554 | 0.3414
x2 = 0.0506 | 784.6 | 779 | 773.6 | 1273.8 | 1253.9 | 1233.4 | 0.3809 | 0.3653 | 0.3503
x2 = 0.1082 | 794.1 | 788.4 | 782.9 | 1276.5 | 1256.3 | 1235.5 | 0.394 | 0.3772 | 0.3609
x2 = 0.1704 | 803.3 | 797.5 | 792 | 1279.3 | 1259 | 1238 | 0.408 | 0.39 | 0.3729
x2 = 0.2421 | 812.6 | 806.6 | 801.4 | 1282.4 | 1261.8 | 1240.9 | 0.4241 | 0.4045 | 0.3864
x2 = 0.3228 | 821.8 | 815.7 | 810.5 | 1285.7 | 1265 | 1244.3 | 0.4423 | 0.4211 | 0.4017
x2 = 0.4163 | 830.7 | 824.7 | 819.7 | 1289.2 | 1268.2 | 1247.8 | 0.4625 | 0.44 | 0.4193
x2 = 0.5288 | 839.6 | 833.8 | 828.7 | 1292 | 1270.9 | 1250.7 | 0.486 | 0.4614 | 0.4389
x2 = 0.6577 | 847.5 | 841.9 | 836.9 | 1294.5 | 1273.6 | 1253.5 | 0.5098 | 0.4834 | 0.4591
x2 = 0.8089 | 854.6 | 849.3 | 844.6 | 1296.7 | 1275.9 | 1256.3 | 0.5353 | 0.5069 | 0.4817
